Numbered stars: 1 amine (or outer) side, 2 acyl side, 3 side chain; on linkers, the order of the positions; unused ones are H or OH. Bridge positions count the residues as written; N and C are the ends. Square brackets hold non-standard residues; d marks the D form. Peptide text beside a SMILES is read from it. * marks the point of attachment. hTyr(3S-OH,4S-OH,3'-OSO3H) = N[C@H](C(=O)O)[C@H](O)[C@@H](O)c1ccc(O)c(OS(=O)(=O)O)c1; Orn(4R-OH,5R-OH) = O=C([C@H](C[C@@H](O)[C@@H](O)N[*:3])N[*:1])[*:2]; Pro(3S-OH,4S-Me) = C[C@H]1CN[C@H](C(=O)O)[C@H]1O; X1 = CCCCCOc1ccc(-c2cc(-c3ccc(C(=O)*)cc3)no2)cc1; Gln(3R-OH) = NC(=O)C[C@@H](O)[C@H](N)C(=O)O; Hyp = O=C(O)[C@@H]1C[C@@H](O)CN1
What was measured:
C. albicans [1] = assay: Agar diffusion: zone of growth inhibition around PM-cement discs impregnated with antifungal; type: cell-based; conditions: for duration of activity / inhibitory activity compared with voriconazole: PM cement discs; for duration of activity: days of incubation; for time up to which anti-candida activity was detected: cement discs, post-incubation; for inhibitory activity compared with voriconazole: in words
Procedure: The echinocandin antifungal micafungin or the triazole voriconazole were mixed with polymethylmethacrylate and a bone cement was formed using the mixture. C. albicans was grown overnight in T-soy broth, washed in buffer, then 1000 C. albicans yeast cells were added to the agar surface of a medium containing RPMI, MOPS, and 2% glucose, which was prepared by adding the latter to autoclaved agar after the agar had cooled for 15 min. Cement discs containing micafungin (100 mg) or voriconazole (400 mg) were prepared as described below. Each cement-antifungal disc was placed on the agar culture medium containing the organism.
The antifungal-cement mix (Smartset HV®, bone cement, DePuy (Warsaw, Ind.)) was prepared as follows under sterile conditions: the polymethylmethacrylate (PM) cement powder (part 1) was first mixed thoroughly with each drug and, then 18.88 g of bone cement liquid (part 2) was added to the mixture. Discs of cement-drug were prepared quickly before the cement hardened. Each cement disc (14 mm) was then placed in the center of inoculated agar cultures in 60 mm petri dishes. The plates were then incubated at 30° C. and zones of inhibition were measured every 24 hrs until activity was not observed (usually 6 days). The same discs were removed daily and placed on fresh agar medium that was inoculated similarly.
At 24 hrs, cement discs containing the antifungal micafungin were about 2.5-fold greater in activity that voriconazole. Further, the activity of micafungin was still detected at 120 hrs post-incubation, while no activity was detected after 24 hrs with voriconazole. Data were plotted as mm growth inhibition versus days of incubation (Table 1). The plates were digitally photographed using image processing software.

C. albicans [2] = assay: Growth inhibition by PM-cement or hydroxyapatite (HA) infiltrated with micafungin or anidulafungin (FIG. 2); type: cell-based, Candida albicans
Procedure: FIG. 2 is a graph showing comparisons of micafungin (MIC) and anidulafungin (ANA) infiltrated in hydrozyapatite (HA) or polymethylmethacrylate (PM)-cement and their inhibitory activity against C. albicans.
Both PM-cement and hydroxyapatite (HA) infiltrated with either micafungin or anidulafungin were evaluated. […] The results again indicated the superiority of micafungin (especially the longevity or diffusion of the drug) regardless of whether the drug was infiltrated in HA or PM cement.

SMILES | duration of activity (C. albicans [1]) | duration of activity (C. albicans [1]; listed as voriconzole) | time up to which anti-candida activity was detected (C. albicans [1]) | inhibitory activity compared with voriconazole (C. albicans [1]) | inhibitory activity compared with voriconazole (C. albicans [1]; listed as Micafungin) | activity of cement discs relative to voriconazole discs (C. albicans [1]; at 24 hrs, micafungin 100 mg vs voriconazole 400 mg discs) | in vitro anti-Candida albicans activity, comparison (C. albicans [2]; HA or PM cement, in words) | persistence of activity (C. albicans [2]; drug infiltrated in HA or PM cement)
C[C@@H](c1ncncc1F)[C@](O)(Cn1cncn1)c1ccc(F)cc1F [voriconazole] | 1 days | ≤ 1 days | ≤ 24 h | – | – | – | – | –
CCCCCOc1ccc(-c2cc(-c3ccc(C(=O)N[C@H]4C[C@@H](O)[C@@H](O)NC(=O)[C@@H]5[C@@H](O)[C@@H](C)CN5C(=O)[C@H]([C@H](O)CC(N)=O)NC(=O)[C@H]([C@H](O)[C@@H](O)c5ccc(O)c(OS(=O)(=O)O)c5)NC(=O)[C@@H]5C[C@@H](O)CN5C(=O)[C@H]([C@@H](C)O)NC4=O)cc3)no2)cc1 [micafungin] (X1-[Orn(4R-OH,5R-OH)]T[Hyp][hTyr(3S-OH,4S-OH,3'-OSO3H)][Gln(3R-OH)][Pro(3S-OH,4S-Me)]; lactam 1-C) | ≥ 6 days | – | ≥ 120 h | much greater | superior and longer lasting | about 2.5 fold | significantly greater than that of voriconazole and anidulafungin | 6 to 7 days

— patent publication US20110071072A1, “Antifungal Bone Cements” (Georgetown University, A Congressionally Chartered …, priority 2009, published 2011)
